Values quoted from earlier work in US20140172387A1, “PREDICTION OF MOLECULAR BIOACTIVATION” (Genentech, Inc., priority 2012, published 2014).
In brackets after ≈: the same amount, converted by molar mass. Read-outs that look alike come from different tables or passages of the source.

Assays:
[1] = not given; remark: listed apart in the source
[2] = molecular target: insect nicotinic acetylcholine receptor (nAChR); conditions: for IC50: insect nAChR
α4β2 mammalian nAChR = α4β2 mammalian nAChR (Homo sapiens, UniProt P17787+P43681)
Sequence of α4β2 mammalian nAChR (P43681 29-627 limits assumed): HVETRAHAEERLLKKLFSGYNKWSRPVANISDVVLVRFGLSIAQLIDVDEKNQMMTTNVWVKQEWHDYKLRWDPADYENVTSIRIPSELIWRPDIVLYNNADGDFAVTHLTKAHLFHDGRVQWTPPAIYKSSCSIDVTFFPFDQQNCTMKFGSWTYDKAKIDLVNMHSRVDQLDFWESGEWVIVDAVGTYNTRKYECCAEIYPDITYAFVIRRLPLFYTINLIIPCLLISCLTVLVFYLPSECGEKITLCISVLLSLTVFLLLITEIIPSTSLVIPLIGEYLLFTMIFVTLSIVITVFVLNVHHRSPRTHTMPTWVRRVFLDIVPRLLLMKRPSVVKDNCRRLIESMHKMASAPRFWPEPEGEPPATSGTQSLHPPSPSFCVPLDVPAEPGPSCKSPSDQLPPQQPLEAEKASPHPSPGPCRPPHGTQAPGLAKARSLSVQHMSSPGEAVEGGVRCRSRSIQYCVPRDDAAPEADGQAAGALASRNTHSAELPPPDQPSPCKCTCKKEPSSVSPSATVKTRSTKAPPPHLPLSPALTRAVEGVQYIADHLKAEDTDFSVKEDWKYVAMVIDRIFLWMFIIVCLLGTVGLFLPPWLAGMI
Sequence of α4β2 mammalian nAChR (P17787 26-502): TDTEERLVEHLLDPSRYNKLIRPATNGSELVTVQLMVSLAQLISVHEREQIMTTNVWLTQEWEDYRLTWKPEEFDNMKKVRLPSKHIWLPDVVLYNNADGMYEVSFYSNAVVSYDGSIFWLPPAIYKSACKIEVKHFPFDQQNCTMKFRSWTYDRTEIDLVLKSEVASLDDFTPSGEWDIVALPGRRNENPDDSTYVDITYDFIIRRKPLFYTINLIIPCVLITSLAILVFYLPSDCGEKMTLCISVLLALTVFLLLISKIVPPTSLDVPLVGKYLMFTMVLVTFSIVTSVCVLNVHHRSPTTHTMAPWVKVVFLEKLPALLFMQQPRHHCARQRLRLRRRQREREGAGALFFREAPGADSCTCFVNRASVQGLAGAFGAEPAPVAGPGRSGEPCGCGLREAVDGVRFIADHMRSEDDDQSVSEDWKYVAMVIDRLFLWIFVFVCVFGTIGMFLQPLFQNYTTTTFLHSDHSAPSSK

CCc1nn(CCCN2CCN(c3cccc(Cl)c3)CC2)c(=O)n1CCOc1ccccc1 [Nefazodone (1), 1-(3-[4-(3-chlorophenyl)piperazin-1-yl]propyl)-3-ethyl-4-(2-phenoxyethyl)-1H-1,2,4-triazol-5(4H)-one]
water solubility (experimental data) (at pH 7): 6.41 µg/mL (≈ 0.0136 mM)

CC(=O)Nc1ccc(O)cc1 [acetaminophen (1), N-acetyl-para-aminophenol]
excreted unchanged in urine [1]: up to 9 % of therapeutic dose
water solubility (experimental data) (at 20° C): 12780 µg/mL (≈ 84.5 mM)

O=[N+]([O-])NC1=NCCN1Cc1ccc(Cl)nc1 [imidacloprid (1), N-[1-[(6-Chloro-3-pyridyl)methyl]-4,5-dihydroimidazol-2-yl]nitramide]
IC50 [2]: 4.6 nM
selectivity for the insect vs. the α4β2 mammalian nAChR ([2]; insect vs. mammalian α4β2 nAChR): > 500 fold
IC50 (α4β2 mammalian nAChR): 2600 nM

N=C1NCCN1Cc1ccc(Cl)nc1 [imidacloprid-NH (6), imidacloprid-NH]
IC50 [2]: 1530 nM
IC50 (α4β2 mammalian nAChR; read-out: IC50): 8.2 nM

C=CCl [vinyl chloride (1), chloroethene]
water solubility (experimental data): 2700 µg/mL
